The data set concerns D39x comC^-. As to the kind of experiment: in vitro recombination frequency, D39x comC^-. It is filed as cell-based, Streptococcus pneumoniae. Conditions: for reduction of recombination frequency upon incubation of modified CSP with trypsin-like proteases: both PPT and HAT, compared with unmodified CSP1. Here is the method:
During culture incubation, porcine pancreatic trypsin (PPT; Sigma #T4799) was reconstituted in Hank’s balanced salt solution (Gibco) and incubated with either water or 4-(2-Aminoethyl) benzenesulfonyl fluoride hydrochloride (AEBSF; Cayman #14321) in a total volume of 50μL 30mM Tris, pH 8.5 and incubated for 15 minutes, room temperature. CSP1 or CSP2 was added, followed by incubation for 30 minutes, room temperature. When the culture reached OD620~0.08, 1 mL of culture was transferred to the PPT-AEBSF-CSP mixture and 2 μg of D39 Tn-seq library gDNA (D39 strains) or 2 μg of TIGR4 Tn-seq library gDNA (TIGR4 strains) was added. […] Upon addition of the culture, the final concentration of PPT ranged from 0–10 μg/mL, AEBSF was 0.1 mM, CSP was 3 μg/mL, and gDNA was 2 μg/mL. The transformation was incubated for 3 hours at 37°C, 5% CO2, followed by serial dilution and plating on two TSA blood plates and two TSA blood plates supplemented with 200 μg/mL spectinomycin. To observe low-frequency recombination events, 200 μL of the transformation was also spread plated on two TSA blood plates supplemented with 200 μg/mL spectinomycin. For transformations with HAT incubated CSP, HAT (Bio-techne R&D #2695-SE-010) was reconstituted in 25mM Tris, 150mM NaCl, pH 7.5. All incubation times and final concentrations were the same as for PPT; however, the volumes were 1/10th as that for PPT. For both PPT and HAT, the experiment was repeated at least three times.

Turning to `CC[C@H](C)[C@H](NC(=O)[C@H](Cc1ccccc1)NC(=O)[C@H](CC(=O)O)NC(=O)[C@H](CCCNC(=N)N)NC(=O)[C@H](Cc1ccccc1)NC(=O)[C@H](Cc1ccccc1)NC(=O)[C@H](CCCCN)NC(=O)[C@H](CO)NC(=O)[C@H](CC(C)C)NC(=O)[C@H](CCCNC(=N)N)NC(=O)[C@H](CCSC)NC(=O)[C@@H](N)CCC(=O)O)C(=O)N[C@@H](CC(C)C)C(=O)N[C@@H](CCC(N)=O)C(=O)N[C@@H](Cc1c[nH]cn1)C(=O)N[C@@H](CCCCN)C(=O)N[C@@H](CCCCN)C(=O)O` [R15H], the “reduction of recombination frequency upon incubation of modified CSP with trypsin-like proteases” value (shortened to “reduction”) is listed as “similarly to that of unmodified CSP1”.
As for `CC[C@H](C)[C@H](NC(=O)[C@H](Cc1ccccc1)NC(=O)[C@H](CC(=O)O)NC(=O)[C@H](CCCNC(=N)N)NC(=O)[C@H](Cc1ccccc1)NC(=O)[C@H](Cc1ccccc1)NC(=O)[C@H](Cc1c[nH]cn1)NC(=O)[C@H](CO)NC(=O)[C@H](CC(C)C)NC(=O)[C@H](CCCNC(=N)N)NC(=O)[C@H](CCSC)NC(=O)[C@@H](N)CCC(=O)O)C(=O)N[C@@H](CC(C)C)C(=O)N[C@@H](CCC(N)=O)C(=O)N[C@@H](CCCNC(=N)N)C(=O)N[C@@H](CCCCN)C(=O)N[C@@H](CCCCN)C(=O)O` [K6H], the “reduction” value was “similarly to that of unmodified CSP1”.
As for `CC[C@H](C)[C@H](NC(=O)[C@H](Cc1ccccc1)NC(=O)[C@H](CC(=O)O)NC(=O)[C@H](Cc1c[nH]cn1)NC(=O)[C@H](Cc1ccccc1)NC(=O)[C@H](Cc1ccccc1)NC(=O)[C@H](CCCCN)NC(=O)[C@H](CO)NC(=O)[C@H](CC(C)C)NC(=O)[C@H](CCCNC(=N)N)NC(=O)[C@H](CCSC)NC(=O)[C@@H](N)CCC(=O)O)C(=O)N[C@@H](CC(C)C)C(=O)N[C@@H](CCC(N)=O)C(=O)N[C@@H](CCCNC(=N)N)C(=O)N[C@@H](CCCCN)C(=O)N[C@@H](CCCCN)C(=O)O` [R9H], the “reduction” value is “to a greater extent than the unmodified CSP1”. Moreover, where the note is “CSP incubated with HAT”, the “HAT concentration to reduce recombination frequency below 5% of 0 trypsin: times less compared to unmodified CSP1” value is on record as 2 times. In addition, the “HAT concentration to reduce the recombination frequency to below 5% of 0 trypsin” value (CSP incubated with HAT 30 min, room temperature) was found to be 0.5 µg/mL. Further, for the setting “CSP incubated with PPT”, the “PPT concentration to reduce recombination frequency below 5% of 0 trypsin: times less compared to unmodified CSP1” value worked out at 5 times. The “PPT concentration to reduce the recombination frequency to below 5% of 0 trypsin” value (CSP incubated with PPT 30 min, room temperature) is 0.01 µg/mL.
